Literature values, collected in paper PMC9516332 (Frontiers in Oncology, 2022).
Read-outs that look alike come from different tables or passages of the source.

Assays:
Settings in all cases: cited from earlier work
[1] = target: T1, panel of 255 wild-type kinases (Homo sapiens, UniProt Q12866)
T1 sequence (Q12866 21-999): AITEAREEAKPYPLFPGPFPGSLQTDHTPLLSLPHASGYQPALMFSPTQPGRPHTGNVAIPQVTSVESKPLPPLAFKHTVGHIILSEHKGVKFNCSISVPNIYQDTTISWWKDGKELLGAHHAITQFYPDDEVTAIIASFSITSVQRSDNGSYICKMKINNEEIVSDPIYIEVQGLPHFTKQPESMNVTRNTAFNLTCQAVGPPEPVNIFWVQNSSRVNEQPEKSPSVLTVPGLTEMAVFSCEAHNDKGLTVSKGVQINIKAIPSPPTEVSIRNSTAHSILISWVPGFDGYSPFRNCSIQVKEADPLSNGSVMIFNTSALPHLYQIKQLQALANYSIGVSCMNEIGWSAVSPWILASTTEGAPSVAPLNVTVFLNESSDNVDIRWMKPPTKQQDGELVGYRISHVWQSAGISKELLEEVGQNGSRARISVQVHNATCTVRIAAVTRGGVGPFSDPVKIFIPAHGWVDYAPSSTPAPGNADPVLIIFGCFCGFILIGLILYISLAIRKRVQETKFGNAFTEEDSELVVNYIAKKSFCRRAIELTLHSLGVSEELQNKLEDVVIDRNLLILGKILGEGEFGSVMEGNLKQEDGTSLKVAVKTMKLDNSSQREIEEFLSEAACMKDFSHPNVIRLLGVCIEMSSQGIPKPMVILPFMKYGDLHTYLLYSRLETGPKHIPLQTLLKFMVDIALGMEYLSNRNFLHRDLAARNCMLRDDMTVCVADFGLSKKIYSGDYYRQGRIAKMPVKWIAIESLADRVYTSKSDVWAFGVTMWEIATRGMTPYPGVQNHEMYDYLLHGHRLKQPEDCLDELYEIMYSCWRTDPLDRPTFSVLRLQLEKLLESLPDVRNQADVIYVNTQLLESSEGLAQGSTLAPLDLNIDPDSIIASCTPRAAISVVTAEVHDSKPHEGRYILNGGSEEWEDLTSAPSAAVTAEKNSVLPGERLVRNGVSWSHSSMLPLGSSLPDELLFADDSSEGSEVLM

[2] = target: panel of 255 wild-type kinases (Homo sapiens, UniProt P07332)
[3] = target: T2, panel of 255 wild-type kinases (Homo sapiens, UniProt O43781)
T2 sequence (O43781 1-588): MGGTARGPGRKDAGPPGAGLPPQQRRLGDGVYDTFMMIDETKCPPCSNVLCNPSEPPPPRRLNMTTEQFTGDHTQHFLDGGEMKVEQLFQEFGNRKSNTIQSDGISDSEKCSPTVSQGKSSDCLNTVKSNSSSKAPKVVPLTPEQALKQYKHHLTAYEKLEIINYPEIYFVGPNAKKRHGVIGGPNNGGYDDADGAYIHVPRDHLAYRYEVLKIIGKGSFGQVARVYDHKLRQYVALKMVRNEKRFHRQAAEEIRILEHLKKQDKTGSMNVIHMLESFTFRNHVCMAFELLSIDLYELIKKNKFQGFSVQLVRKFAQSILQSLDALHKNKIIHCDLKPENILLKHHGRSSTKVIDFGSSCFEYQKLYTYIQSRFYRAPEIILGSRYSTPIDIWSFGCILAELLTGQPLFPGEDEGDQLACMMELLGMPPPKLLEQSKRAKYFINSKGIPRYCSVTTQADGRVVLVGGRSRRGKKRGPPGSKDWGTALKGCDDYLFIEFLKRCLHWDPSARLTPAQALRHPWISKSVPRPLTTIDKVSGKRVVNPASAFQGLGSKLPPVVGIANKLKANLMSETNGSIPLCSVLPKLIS

[4] = target: panel of 255 wild-type kinases (Homo sapiens, UniProt P51451)
[5] = target: panel of 255 wild-type kinases (Homo sapiens, UniProt Q9UQM7)
[6] = target: panel of 255 wild-type kinases (Homo sapiens, UniProt P22612)
[7] = target: panel of 255 wild-type kinases (Homo sapiens, UniProt Q04759)
[8] = target: panel of 255 wild-type kinases (Homo sapiens, UniProt Q9HBH9)
[9] = MER, 1 µmol/L single concentration, ref DOI: 10.1158/1535-7163.MCT-18-0877
[10] = kinase FES, 1 µmol/L single concentration, ref DOI: 10.1158/1535-7163.MCT-18-0877
[11] = kinase DYRK3, 1 µmol/L single concentration, ref DOI: 10.1158/1535-7163.MCT-18-0877
[12] = BLK kinase assay, 1 µmol/L single concentration, ref DOI: 10.1158/1535-7163.MCT-18-0877
[13] = CaMK2α kinase assay, 1 µmol/L single concentration, ref DOI: 10.1158/1535-7163.MCT-18-0877
[14] = kinase PKACγ, 1 µmol/L single concentration, ref DOI: 10.1158/1535-7163.MCT-18-0877
[15] = kinase PKCθ, 1 µmol/L single concentration, ref DOI: 10.1158/1535-7163.MCT-18-0877
[16] = MNK2, 1 µmol/L single concentration, ref DOI: 10.1158/1535-7163.MCT-18-0877
[17] = kinase DYRK3, 1 µmol/L single concentration, ref DOI: 10.1371/journal.pone.0092146
[18] = CaMK2α kinase assay, 1 µmol/L single concentration, ref DOI: 10.1371/journal.pone.0092146
[19] = kinase PKACγ, 1 µmol/L single concentration, ref DOI: 10.1371/journal.pone.0092146
[20] = kinase PKCθ, 1 µmol/L single concentration, ref DOI: 10.1371/journal.pone.0092146
[21] = MNK2, 1 µmol/L single concentration, ref DOI: 10.1371/journal.pone.0092146
[22] = MER, 1 µmol/L single concentration, ref DOI: 10.1371/journal.pone.0092146
[23] = kinase FES, 1 µmol/L single concentration, ref DOI: 10.1371/journal.pone.0092146
[24] = BLK kinase assay, 1 µmol/L single concentration, ref DOI: 10.1371/journal.pone.0092146

Compound	%-inhibition, MER [1, 9]	%-inhibition at 1 µmol/L, FES [2, 10]	%-inhibition at 1 µmol/L, DYRK3 [3, 11]	%-inhibition BLK [4, 12]	%-inhibition CaMK2α [5, 13]	%-inhibition at 1 µmol/L, PKACγ [6, 14]	%-inhibition at 1 µmol/L, PKCθ [7, 15]	%-inhibition, MNK2 [8, 16]	%-inhibition at 1 µmol/L, DYRK3 [3, 17]	%-inhibition CaMK2α [5, 18]	also measured
CC#CC(=O)N1CCC[C@H]1c1nc(-c2ccc(C(=O)Nc3ccccn3)cc2)c2c(N)nccn12 [acalabrutinib]	-3.37%	-6.35%	0.353%	8.43%	-3.43%	1.68%	-8%	12%	–	–	–
CCc1cc2c(cc1N1CCC(N3CCOCC3)CC1)C(C)(C)c1[nH]c3cc(C#N)ccc3c1C2=O [alectinib]	56%	23%	8.44%	17%	0.405%	3%	-2%	13%	–	–	–
COc1cc(N2CCC(N3CCN(C)CC3)CC2)ccc1Nc1ncc(Cl)c(Nc2ccccc2P(C)(C)=O)n1 [brigatinib]	–	–	–	–	–	–	–	–	–	–	%-inhibition, MER [1]: 89%; %-inhibition at 1 µmol/L, FES [2]: 100%; %-inhibition at 1 µmol/L, DYRK3 [3]: 3.23%; %-inhibition BLK [4]: 83%; %-inhibition CaMK2α [5]: 86%; %-inhibition at 1 µmol/L, PKACγ [6]: 9%; %-inhibition at 1 µmol/L, PKCθ [7]: 29%; %-inhibition, MNK2 [8]: 66%
Cc1cc(Nc2ncc(Cl)c(Nc3ccccc3S(=O)(=O)C(C)C)n2)c(OC(C)C)cc1C1CCNCC1 [ceritinib]	51%	99%	-2.12%	2%	15%	1.46%	-0.708%	76%	–	–	–
O=C(c1ccc(F)c(F)c1Nc1ccc(I)cc1F)N1CC(O)([C@@H]2CCCCN2)C1 [cobimetinib]	1.18%	1.67%	-3.62%	10%	7%	4.37%	-4.34%	8%	–	–	–
C[C@@H](Oc1cc(-c2cnn(C3CCNCC3)c2)cnc1N)c1c(Cl)ccc(F)c1Cl [crizotinib]	–	–	–	–	–	–	–	–	14%	-2.77%	%-inhibition at 1 µmol/L, PKACγ [6, 19]: -6.52%; %-inhibition at 1 µmol/L, PKCθ [7, 20]: -3%; %-inhibition, MNK2 [8, 21]: 2%
CC(C)(C)c1nc(-c2cccc(NS(=O)(=O)c3c(F)cccc3F)c2F)c(-c2ccnc(N)n2)s1 [dabrafenib]	–	–	–	–	–	–	–	–	-5.68%	-2.14%	%-inhibition, MER [1, 22]: -0.876%; %-inhibition at 1 µmol/L, FES [2, 23]: 2.29%; %-inhibition BLK [4, 24]: 80%
C=CC(=O)N1CCC[C@@H](n2nc(-c3ccc(Oc4ccccc4)cc3)c3c(N)ncnc32)C1 [ibrutinib]	0.565%	0.681%	-4%	101%	-1.35%	5%	-1.13%	20%	–	–	–
CO[C@@H]1[C@H](N(C)C(=O)c2ccccc2)C[C@H]2O[C@]1(C)n1c3ccccc3c3c4c(c5c6ccccc6n2c5c31)C(=O)NC4 [midostaurin]	85%	90%	–	84%	–	81%	–	80%	–	–	–
C=CC(=O)Nc1cc(Nc2nccc(-c3cn(C)c4ccccc34)n2)c(OC)cc1N(C)CCN(C)C [osimertinib]	10%	42%	21%	66%	2%	7.4%	10%	97%	–	–	–
CC(=O)Nc1cccc(-n2c(=O)n(C3CC3)c(=O)c3c(Nc4ccc(I)cc4F)n(C)c(=O)c(C)c32)c1 [trametinib]	–	–	–	–	–	–	–	–	-10%	-1.65%	%-inhibition, MER [1, 22]: -6.62%; %-inhibition at 1 µmol/L, FES [2, 23]: -1.55%; %-inhibition BLK [4, 24]: -2.79%; %-inhibition at 1 µmol/L, PKACγ [6, 19]: 2%; %-inhibition at 1 µmol/L, PKCθ [7, 20]: 0.388%; %-inhibition, MNK2 [8, 21]: -11%
CCCS(=O)(=O)Nc1ccc(F)c(C(=O)c2c[nH]c3ncc(-c4ccc(Cl)cc4)cc23)c1F [vemurafenib]	–	–	–	–	–	–	–	–	5%	-4.25%	%-inhibition, MER [1, 22]: 6%; %-inhibition at 1 µmol/L, FES [2, 23]: 18%; %-inhibition BLK [4, 24]: 52%; %-inhibition at 1 µmol/L, PKACγ [6, 19]: -3%; %-inhibition at 1 µmol/L, PKCθ [7, 20]: -3%; %-inhibition, MNK2 [8, 21]: 27%
